Data taken from patent publication US5077292A, “(2-imidazolin-2-ylamino) tetrahydroquinoxalines and methods for using same” (priority 1989, dated 1991).

What was measured:
[1] = system: mean arterial blood pressure; assay: blood pressure effects (MAP) in anti-diarrheal test; assay type: in vivo, rats; conditions: p.o.
Experimental: (§1) The tetrahydroquinoxaline produced in Example 1 was tested for anti-diarrheal effects and blood pressure effects using the following method.
(§2) Cecectomies were performed in unfasted rats as follows. Under anesthesia with methohexital (60 mg/kg. i.p.), a laparotyphlectomy was initiated with a 2 cm midventral incision. The cecum was lifted from the abdominal cavity and exteriorized onto a gauze drape. The cecal apex was freed by severing the avascular area of the mesocecum. Next, a ligature of #1 silk suture was positioned so as to occulude the cecum and its vasculature without compromising ileo-colonic patency. After the ligature was secured and ileo-colonic patency confirmed, the cecum was resected, and the remaining exposed cecal mucosa was washed with saline and cauterized. The intestinal segment was then returned to the abdominal cavity, and the abdominal muscle facia closed with interrupted 4/0 chromic-gut sutures. The dermal incision was closed with 9 mm stainless steel wound clips that were removed approximately 1 week post surgery. An arterial line was also implanted into the abdominal aorta and vena cava via the femoral vessels, in a manner similar to that described in Example 10. Immediately following the surgical procedure, animals were returned to their cages and allowed free access to food and water. Animals were permitted at least 48 hour recovery period before being used in experiments.
(§3) The cecectomized rats were put into individual wire-bottomed cages placed over sheets of clean paper, and deprived of food and water for the duration of the assay. The MAP was monitored, as described in Example 10, throughout the assay. Rats were given a 2 hour acclimatization period prior to the start of the assay in order to eliminate sporadic episodes of anxiety-induced defecation. During this period they were observed also for consistent occurrences of pelleted feces; an animal producing other than a pelleted stool was disqualified from the study.
(§4) Diarrhea was induced with oral administration of 16,16-dimethyl prostaglandin E2 (dmPGE2) in 3.5% EtOH. The tetrahydro-quinoxaline was administered by gavage after the onset of diarrheal episodes. The cage papers were removed and examined at 30 minute intervals for dmPGE2 -induced diarrhea. Fecal output was recorded at each interval and fecal consistency is assigned a numerical score in each experimental group as follows: 1=normal pelleted stool; 2=soft-formed stools; 3=water stool and/or diarrhea. The fecal output index (FOI) is defined as the summation of the number of defecation episodes and their ranked consistency score within an observation period.

[2] = system: urine flow; assay: renal effects (urine flow), intraduodenal administration; assay type: in vivo, Sprague-Dawley rats; conditions: test run 3 times
Experimental: (§5) The tetrahydroquinoxaline produced in Example 1 was tested for renal and blood pressure effects using the following method.
(§6) Young male (20-24 weeks old) Sprague-Dawley rats were used. Under ketamine (60 mg/kg b.wt. i.m.) and pentobarbital (i.p. to effect) anesthesia, medical grade plastic tubes were implanted into the abdominal aorta and vena cava via the femoral vessels. In addition, a Silastic-covered stainless steel cannula were sewn in the urinary bladder. After the surgery, the rats were housed individually and were allowed free access to food and water until the day of the experiment.
(§7) For about 7 to 10 days before surgery and during recovery, the rats were accustomed to a restraining cage by placement in the cage for 2 to 3 hours every 2nd and 3rd day. The cage was designed for renal clearance studies (a model G Restrainer sold by Braintree Scientific, Inc., Braintree, Mass.). The animals' adjustment to the cage was judged by the stability of blood pressure and heart rate.
For an experiment, a rat was placed in the restraining cage, and the arterial line was connected to a Statham pressure transducer and a Beckman Dynograph R61 to monitor the mean arterial blood pressure, hereinafter referred to as MAP. The venous line was connected to an infusion pump system for infusion of replacement fluid. The tetrahydroquinoxaline was administered intraduodenally by cannula. The bladder cannula was extended with a silastic tube to facilitate collection of urine in preweighed tubes. The volume of urine was measured gravimetrically. Body weight was recorded before and after the experiment.
Throughout the experiments, 0.9% NaCl containing 10% polyfructosan (Inutest) and 1% sodium PAH was infused at a rate of 20 microliters/min. An equilibration period of 60 minutes was followed by two consecutive 30 minute control clearance periods. Then, the tetrahydroquinoxaline was administered for 90 minutes. Urine collection was resumed 10 minutes after the start of tetrahydroquinoxaline administration. By this time the washout of the bladder cannula dead space (approximately 200 microliters) was completed. Three additional clearance measurements were made. Blood samples (150 microliters) were collected at the midpoint of urine collections. Plasma was separated and saved for analyses, and the cells were resuspended in saline and returned to the animals. Water and sodium loss was carefully replaced i.v. by a variable speed infusion pump.

[3] = system: Alpha 3 Adrenergic Receptors; assay: Rabbit Saphenous Vein: Alpha 3 Adrenergic Receptors; assay type: cell-based, albino rabbit; conditions: rabbit saphenous vein rings, 37° C., field stimulated; n = number of test runs
Experimental: (§8) The tetrahydroquinoxalines produced in Examples 1 to 3 were tested for activity using the following in vitro methods.
Rabbit Saphenous Vein: Alpha 3 Adrenergic Receptors
Thoracic aorta and saphenous vein specimens were obtained from albino rabbits that were killed by CO2 inhalation. The aorta and saphenous vein were each cut into 3 mm rings. Tissues were placed in Krebs-Hensleit solution of the following composition (millimolar): NaCl 119; KCl 4.7; MgSO4 1.5, KH2 PO4 1.2; CaCl2 2.5; NaHCO3 25 and glucose 11.0. The solution also contained cocaine (0.1 millimolar) to block neuronal uptake and EDTA (30 micromolar) and ascorbic acid (5 micromolar) to prevent oxidation of the tetrahydroquinoxaline being tested. Tissues were hung in 10 ml organ baths and tension was measured via Grass FT03 force-displacement transducers. Resting tension was 1 g and 2 g for the saphenous vein and aorta, respectively. The solution was gassed with 95% O2 and 5% CO2 and maintained at 37° C. Tissues were allowed to equilibrate for 2 hours before stimulation and the cumulative addition of the tetrahydroquinoxaline being treated was started. Tissue stimulation was performed as with the rabbit vas deferens, described above. The contractions of the tissue were recorded isometrically as for the rabbit vas deferens assay. […]

[4] = system: dmPGE2-induced diarrhea; assay: anti-diarrheal effects in cecectomized rats, dmPGE2-induced diarrhea; assay type: in vivo; conditions: p.o.
Experimental: as §1, §2, §3, §4

[5] = biological target: T1, Alpha 2 Adrenergic Receptors (Oryctolagus cuniculus, UniProt Q5ZQK3); assay: Rabbit Vas Deferens: Alpha 2 Adrenergic Receptors; assay type: cell-based, New Zealand white rabbit; conditions: 35° C., field stimulated, 50% reduction in response height, n = number of test runs
T1 construct: from tissue; host or cells: New Zealand white rabbit vas deferens, prostatic end, field stimulated
T1 sequence (Q5ZQK3 1-451): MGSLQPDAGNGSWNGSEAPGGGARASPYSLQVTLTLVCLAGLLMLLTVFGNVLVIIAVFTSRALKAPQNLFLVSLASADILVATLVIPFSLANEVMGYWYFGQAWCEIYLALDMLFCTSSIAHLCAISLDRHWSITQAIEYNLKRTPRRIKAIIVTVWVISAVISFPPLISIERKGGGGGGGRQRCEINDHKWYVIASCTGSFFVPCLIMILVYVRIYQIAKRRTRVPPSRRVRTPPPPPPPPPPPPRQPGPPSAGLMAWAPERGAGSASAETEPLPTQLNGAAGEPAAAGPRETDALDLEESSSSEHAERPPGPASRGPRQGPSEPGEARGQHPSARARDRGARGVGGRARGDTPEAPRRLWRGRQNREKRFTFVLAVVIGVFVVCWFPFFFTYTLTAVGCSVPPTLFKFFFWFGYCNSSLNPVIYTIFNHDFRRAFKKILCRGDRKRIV
Experimental: as §8
Rabbit Vas Deferens: Alpha 2 Adrenergic Receptors
New Zealand white rabbits (2-3 kg) were killed by CO2 inhalation and the vasa deferentia removed. The prostatic ends of the vasa deferentia (2-3 cm lengths) were mounted between platinum ring electrodes in 9 ml organ baths and bathed in Krebs bicarbonate solution of the following composition (millimolar): NaCl 118.0; KCl 4.7; CaCl2 2.5; MgSO4 1.2; KH2 PO4 1.2; glucose 11.0; NaHCO3 25.0; which solution was maintained at 35° C. and bubbled with 95% O2 and 5% CO2. The initial tension of the vas deferens was 0.5 g. The tissues were left to equilibrate for 30 minutes before stimulation was started. Vasa were then field stimulated (0.1 Hz, 2 ms pulse width at 90 mA) using a square wave stimulator (WPI A310 Accupulser with A385 stimulus). […] Cumulative concentration-response curves were obtained for the tetrahydroquinoxaline being tested with a 4 minute contact time at each concentration. The reduction in response height was measured and expressed as a percentage of the height of the response before the addition of tetrahydroquinxoaline. Concentration response curves for each of tetrahydroquinoxalines were plotted. The effective concentration required for a 50% reduction in response height, expressed as EC50, were obtained from these curves and are set forth below.

[6] = system: mean arterial blood pressure; assay: blood pressure effects (MAP) in renal test, intraduodenal administration; assay type: in vivo, Sprague-Dawley rats; conditions: test run 3 times
Experimental: as §5, §6, §7
For an experiment, a rat was placed in the restraining cage, and the arterial line was connected to a Statham pressure transducer and a Beckman Dynograph R61 to monitor the mean arterial blood pressure, hereinafter referred to as MAP. […] The volume of urine was measured gravimetrically. Body weight was recorded before and after the experiment. […]

[7] = system: Alpha 1 Adrenergic Receptors; assay: Rabbit Aorta: Alpha 1 Adrenergic Receptors; assay type: cell-based, albino rabbit; conditions: rabbit aorta rings, 37° C., field stimulated; n = number of test runs
Experimental: as §8
Rabbit Aorta: Alpha 1 Adrenergic Receptors
Thoracic aorta and saphenous vein specimens were obtained from albino rabbits that were killed by CO2 inhalation. The aorta and saphenous vein were each cut into 3 mm rings. Tissues were placed in Krebs-Hensleit solution of the following composition (millimolar): NaCl 119; KCl 4.7; MgSO4 1.5, KH2 PO4 1.2; CaCl2 2.5; NaHCO3 25 and glucose 11.0. The solution also contained cocaine (0.1 millimolar) to block neuronal uptake and EDTA (30 micromolar) and ascorbic acid (5 micromolar) to prevent oxidation of the tetrahydroquinoxaline being tested. Tissues were hung in 10 ml organ baths and tension was measured via Grass FT03 force-displacement transducers. Resting tension was 1 g and 2 g for the saphenous vein and aorta, respectively. The solution was gassed with 95% O2 and 5% CO2 and maintained at 37° C. Tissues were allowed to equilibrate for 2 hours before stimulation and the cumulative addition of the tetrahydroquinoxaline being treated was started. Tissue stimulation was performed as with the rabbit vas deferens, described above. The contractions of the tissue were recorded isometrically as for the rabbit vas deferens assay. Cumulative concentration response curves were obtained and the EC50 valve developed for each tetrahydroquinoxaline tested in a manner similar to that for the rabbit vas deferens assay.

[8] = system: intraocular pressure; assay: effect on intraocular pressure, topical unilateral administration to rabbit eye; assay type: in vivo, New Zealand white rabbit; conditions: 0.1% (W/V)
Experimental: The three (3) tetrahydroquinoxaline derivatives produced in accordance with Examples 1 to 3 were tested to determine what effect, if any, these materials have on intraocular pressure.
Each of these materials was dissolved in distilled water at a concentration of 0.1% (W/V). Each of these solutions was administered topically and unilaterally to one eye of a drug-naive, unanesthetized New Zealand white rabbit in a single 50 micro liter drop. The contralateral eye received an equal volume of saline prior to determining the intraocular pressure after the mixture was administered. Also, approximately 10 micro liters of 0.5% (W/V) proparacaine (topical anesthetic) was applied to the corneas of each of the rabbits before determining intraocular pressure. As a control test, six (6) other drug-naive, unanesthetized New Zealand white rabbits were treated and tested as described above except that no tetrahydroquinoxaline derivative was included in the solutions administered to the eyes.
The intraocular pressure was determined in both eyes of each rabbit before and after the solutions were administered. Such intraocular pressure determinations were made in the conventional manner using conventional equipment.

Brc1c(NC2=NCCN2)ccc2c1NCCN2 [Example 1, 5-Bromo-6-(2-imidazolin-2-ylamino)-1,2,3,4-tetrahydroquinoxaline]
Increase in MAP ([1]; 0.01 mg/kg): 0 mm Hg | Increase in MAP ([1]; 0.03 mg/kg): 0 mm Hg | Increase in MAP ([1]; 0.10 mg/kg): 0 mm Hg | Increase in MAP ([1]; 0.30 mg/kg): 0 mm Hg | Increase in MAP ([1]; 1.00 mg/kg): 0 mm Hg | Increase in MAP ([1]; 3.00 mg/kg): 10 mm Hg | Increase in MAP ([1]; 10.00 mg/kg): 25 mm Hg | effect in blood pressure accompanying anti-diarrheal effects (in words) ([1]; cecectomized rats): no or a relatively minimal effect in blood pressure | Increase in Urine Flow ([2]; 0.01 mg/kg): 0 microliters/min./100 g of body | Increase in Urine Flow ([2]; 0.03 mg/kg): 4 microliters/min./100 g of body | Increase in Urine Flow ([2]; 0.1 mg/kg, P less than 0.05): 16 microliters/min./100 g of body | Increase in Urine Flow ([2]; 0.3 mg/kg, P less than 0.05): 24 microliters/min./100 g of body | Increase in Urine Flow ([2]; 1 mg/kg, P less than 0.05): 32 microliters/min./100 g of body | EC50 [3]: 0.092 ± 0.019 µM | Percent Reduction in FOI versus dmPGE2 Control ([4]; 0.01 mg/kg): 17% | Percent Reduction in FOI versus dmPGE2 Control ([4]; 0.03 mg/kg): 60% | Percent Reduction in FOI versus dmPGE2 Control ([4]; 0.10 mg/kg): 57% | Percent Reduction in FOI versus dmPGE2 Control ([4]; 0.30 mg/kg): 76% | Percent Reduction in FOI versus dmPGE2 Control ([4]; 1.00 mg/kg): 98% | Percent Reduction in FOI versus dmPGE2 Control ([4]; 3.00 mg/kg): 98% | Percent Reduction in FOI versus dmPGE2 Control ([4]; 10.00 mg/kg): 100% | anti-diarrheal effects (in words) ([4]; cecectomized rats, dmPGE2-induced diarrhea): substantial anti-diarrheal effects | EC50 [5]: 0.00175 µM | Increase in MAP ([6]; 0.3 mg/kg): 2.5 mm Hg | Increase in MAP ([6]; 1 mg/kg): 8 mm Hg | EC50 [7]: 1.13 ± 0.207 µM | effect on intraocular pressure in the treated eye (in words) ([8]; treated rabbit eye): effective to reduce intraocular pressure in the treated rabbit eye | initial effect on intraocular pressure in the treated eye (in words) ([8]; treated rabbit eye, initial effect): raising the intraocular pressure

Brc1c(NC2=NCCN2)ccc2c1NCCN2 [drawing 5]
Difference In Intraocular Pressure, Initial Effect On Treated Eye ([8]; single 50 micro liter drop, treated eye, initial effect, N.S. = not statistically significant): +10.7 ± 3.6% | Difference In Intraocular Pressure, Maximum Effect on Treated Eye ([8]; single 50 micro liter drop, treated eye, maximum effect, N.S. = not statistically significant): -16.0 ± 3.3% | Difference In Intraocular Pressure, Maximum Effect On Untreated Eye ([8]; single 50 micro liter drop, untreated (contralateral) eye, maximum effect, N.S. = not statistically significant): N.S.
